Experimental data: patent publication US20220323454A1, “PHENOTHIAZINES AND THEIR DERIVATIVES FOR USE AS A MEDICAMENT” (Guangzhou Virotech Pharmaceutical Co., Ltd., priority 2019, published 2022)

How the values were obtained:
[1] = system: Jurkat-PD-1-NFAT-LUC cells; assay: IL-2 secretion by Jurkat-PD-1-NFAT-LUC cells co-cultured with Raji-PD-L1 cells (ELISA); type: cell-based, human; settings: 6 hours, FIG. 1D
Method: (1) Jurkat cells were used to construct a stable cell line expressing PD-1. The pCAGin-PD-1 plasmid was electroporated into Jurkat cells, which were then screened with 900 μg/mL G418 antibiotic and flow-sorted for single clones. Jurkat-PD-1 cells were then electroporated into a DNA fragment that controls the luciferase gene through the NFAT-binding site (referred to as NFAT-LUC). A single clone was then flow-sorted and named clone 5. Using this cell, the expression level of IL-2 can be measured by the activity of luciferase. Raji cells stably expressing PD-L1 were constructed, and the pCDNA-PD-L1 plasmid was electroporated into the Raji cells, followed by screening with 2 μg/mL puromycin, and then flow-sorted single clones and named clone 1.
(3) A 96-well plate was coated with 10 μg/mL CD3 antibody/10 μg/mL CD28 antibody overnight at 4° C. and excess antibody was washed off with PBS. Raji cells or Raji-PD-L1 cells were co-cultured with Jurkat-PD-1-NFAT-LUC cells at a ratio of 1:1, or to a mixture of Raji-PD-L1 cells and Jurkat-PD-1-NFAT-LUC cells at a ratio of 1:1 was added 1 μM MTC or 10 μg/mL PD1 antibody for co-culture; after 6 hours of co-culture, the secretion of IL-2 in the supernatant was measured by ELISA.

[2] = system: EG-7-PD-L1 cells; assay: CTL killing of EG-7-PD-L1 target cells (PI staining, flow cytometry); type: cell-based, mouse; settings: CTL : EG-7-PD-L1 5:1; 1 μM, 5 μM, 10 μM MTC, 4 hours; FIG. 4A
Method: (1) The preparation of CTL cells was described in Example 2.
(2) EG-7-PD-L1 cells were labeled with 5 nM CFSE. CTL cells and EG-7-PD-L1 were mixed at a ratio of 5:1, treated with 1 μM, 5 μM, and 10 μM MTC, respectively, for 4 hours, and then stained with 10 μg/mL PI. The apoptosis of target cells EG-7-PD-L1 was detected by flow cytometry, and then the killing ability of CTL cells to target cells was assessed.

[3] = system: EL4-OVA-mPDL1 cells; assay: EL4-OVA-mPDL1 subcutaneous transplanted tumor in Rag1−/− mice given CTL cells; type: in vivo, mouse
Method: (1) Lymphoma cells overexpressing chicken ovalbumin OVA and mouse PD-L1, namely EL4-OVA-mPDL1 cells, were resuspended in BD Matrigel, in which, for one side of one mouse, 2×10^6 cells were resuspended in 100 μl BD Matrigel.
(2) The mixture of cells and Matrigel was inoculated into the left and right flanks of Rag1−/− mice subcutaneously, each at a dosage of 100 μl.
(3) When the tumor was fixed about 5 days after inoculation, activated OT-1 T cells (i.e., 2×10^6 CTL cells/mouse) were injected through the tail vein, and the mice were divided into 3 groups, namely the CTL cell group, the CTL cell +10 mg/kg/2 days PD-1 antibody group, and the CTL cell +40 mg/kg/day MTC group.
(4) The length and width of the transplanted tumor of each group of mice were measured from the day of tail vein injection of CTL cells, and every other day, and the tumor volume was calculated as length×width^2/2 (FIG. 5A).

[4] = system: EGFR-L858R mutant orthotopic tumors; assay: EGFR-L858R transgenic mouse orthotopic lung cancer model (CT); type: in vivo; settings: FIG. 6B
Excerpt: The advantages of xenograft models are that the antigenic epitopes recognized by T cells are very clear, and the system is pure for elucidation. The disadvantage is that this model cannot simulate the complex carcinogenesis, tumorigenesis, and interactions of tumor and stromal cells of the primary cancer. Therefore, murine xenograft models are less predictive of drug effects in human patients. Therefore, in this example, the effect of the MTC of the present invention in treating tumors was further investigated by using a transgenic lung cancer mouse model. […] One to two months later, lung cancer in mice could be detected and recorded by computed tomography (CT). […]
(2) The size and severity of the tumors was recorded by computed tomography (CT).
(3) The tumor-bearing mice were randomly divided into groups and given placebo (HKI solution) and MTC (40 mg/kg/day in HKI solution). After 2 weeks of treatment, tumor sizes were recorded by CT again.
Mice were intraperitoneally injected with CD8 antibody […] one week in advance to deplete CD8+ cells in the tumor-bearing mice. The mice were then co-treated with MTC and CD8 antibody for 2 weeks, and the tumor size was recorded by CT.

[5] = target: T1, PD-1 recruitment of SHP2 (Homo sapiens, UniProt Q06124+Q15116); assay: Split-luciferase PD-1-Cluc / Nluc-SHP2 interaction in 293T cells; type: cell-based; settings: 293T stable cell line, different concentrations of MTC, 6 hours; FIG. 7A
T1 construct: expressed in transfected cells
T1 sequence (Q15116 25-288): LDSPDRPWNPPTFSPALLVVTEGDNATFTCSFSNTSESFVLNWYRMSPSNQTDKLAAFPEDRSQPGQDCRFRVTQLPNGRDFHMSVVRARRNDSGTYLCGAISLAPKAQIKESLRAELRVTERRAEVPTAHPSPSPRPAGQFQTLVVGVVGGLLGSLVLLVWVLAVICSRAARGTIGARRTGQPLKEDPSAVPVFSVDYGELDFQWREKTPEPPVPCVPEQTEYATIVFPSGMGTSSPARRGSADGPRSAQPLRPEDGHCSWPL
T1 sequence (Q06124 whole entry): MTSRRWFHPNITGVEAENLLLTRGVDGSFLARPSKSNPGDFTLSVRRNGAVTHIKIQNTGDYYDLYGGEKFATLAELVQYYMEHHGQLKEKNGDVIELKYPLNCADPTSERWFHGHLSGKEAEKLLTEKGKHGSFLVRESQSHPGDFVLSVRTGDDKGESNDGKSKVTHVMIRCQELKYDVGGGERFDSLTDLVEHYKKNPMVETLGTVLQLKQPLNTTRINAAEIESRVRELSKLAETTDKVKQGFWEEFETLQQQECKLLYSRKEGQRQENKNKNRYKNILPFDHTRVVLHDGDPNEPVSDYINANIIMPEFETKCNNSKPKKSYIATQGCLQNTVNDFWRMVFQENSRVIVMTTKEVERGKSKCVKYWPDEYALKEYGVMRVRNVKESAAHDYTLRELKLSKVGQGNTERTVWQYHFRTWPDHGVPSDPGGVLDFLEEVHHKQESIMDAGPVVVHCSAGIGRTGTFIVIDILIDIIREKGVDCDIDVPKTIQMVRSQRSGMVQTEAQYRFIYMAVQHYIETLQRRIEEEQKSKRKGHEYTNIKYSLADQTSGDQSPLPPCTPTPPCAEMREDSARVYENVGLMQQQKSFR
Excerpt: This example preliminarily explored the mechanism by which MTC inhibits PD-1 signaling, and assessed the ability of MTC to affect PD-1 recruitment of SHP2. The binding of PD-1 to ligands can recruit SHP2 protein to the surrounding T cell receptors, thereby inhibiting the activation of T cell receptor proximal kinases, reducing Lck-mediated phosphorylation of ZAP-70 protein and the initiation of downstream signaling pathways. Luciferase can be split into two fragments, N-terminal and C-terminal. When the two fragments are fused with other proteins, the activity of luciferase can be detected if the N-terminal and C-terminal luciferase fragments are close due to the interaction of their fusion proteins. Therefore, the strength of the interaction of the fused proteins can indirectly detected by measuring the activity of luciferase.
(1) Fusion genes PD-1-Cluc and Nluc-SHP2 were transfected into 293T cells with liposomes to construct a stable cell line. The cells were added with different concentrations of MTC and cultured for 6 hours to observe the effect of MTC on the reading of luciferase.

Structure (SMILES): CN(C)c1ccc2nc3ccc(N(C)C)cc3[s+]c2c1 [MTC, 3,7-bis(dimethylamino)-phenothiazine-5-ium chloride]
- function of Jurkat cells inhibited by PD-1, compared with the PD-1 antibody group ([1]; 1 μM MTC vs 10 μg/mL PD1 antibody): significantly improved
- secretion of IL-2 in the supernatant ([1]; Raji-PD-L1 : Jurkat-PD-1-NFAT-LUC 1:1, CD3/CD28 antibody coated plate, 1 μM MTC or 10 μg/mL PD1 antibody): sharply enhanced
- killing ability of CTL cells against EG-7-PD-L1 [2]: significantly restored
- tumor growth (tumor volume and tumor weight) ([3]; CTL cells by tail vein, MTC 40 mg/kg/day intragastric, PD-1 antibody 10 mg/kg/2 days intraperitoneal, vs CTL cell-only group, FIGS. 5B, C, D): strongly inhibited tumor growth
- therapeutic effect of CTL+MTC compared with CTL+PD-1 antibody treatment group ([3]; MTC 40 mg/kg/day vs PD-1 antibody 10 mg/kg/2 days): better therapeutic effect
- tumor growth in the case of CD8+ T cell depletion ([4]; CD8 antibody one week in advance, then MTC and CD8 antibody for 2 weeks): not inhibited
- tumors by CT imaging ([4]; MTC 40 mg/kg/day in HKI solution, 14 days): basically cleared
- readings of luciferase (PD-1-Cluc / Nluc-SHP2 interaction) [5]: reduce the readings of luciferase
